Laboratory results from the NIST ThermoML archive (doi:10.1016/j.fluid.2008.01.030).
± gives the expanded uncertainty stated by the source.

Settings: Liquid, Closed cell (Static) method

C/C=C\C [(Z)-2-butene]
vapor or sublimation pressure (312.59 K): 332.2 ± 1.9 kPa

CC(C)C [2-methylpropane]
vapor or sublimation pressure (307.86 K): 459.8 ± 2.3 kPa

C=C(C)C [2-methylpropene]
vapor or sublimation pressure (312.6 K): 465.3 ± 2.3 kPa

CSC [2-thiapropane]
vapor or sublimation pressure (307.86 K): 91.7 ± 1.3 kPa | vapor or sublimation pressure (312.58 K): 107.7 ± 1.3 kPa | vapor or sublimation pressure (312.59 K): 106.2 ± 1.3 kPa | vapor or sublimation pressure (312.6 K): 107.4 ± 1.3 kPa | vapor or sublimation pressure (317.32 K): 126 ± 1.3 kPa | vapor or sublimation pressure (317.35 K): 126 ± 1.3 kPa

C/C=C/C [(E)-2-butene]
vapor or sublimation pressure (317.29 K): 413.8 ± 2.2 kPa

C=CCC [1-butene]
vapor or sublimation pressure (312.57 K): 454.5 ± 2.3 kPa

CCCC [butane]
vapor or sublimation pressure (317.47 K): 425.7 ± 2.1 kPa
